# Measured values as given in US9913838B2, “Methods of treating cancer using compositions comprising perillyl alcohol derivative” (NEONC TECHNOLOGIES INC., priority 2010, dated 2018).
# Entries after “also recorded” stand apart in the source; their conditions may differ.
# How the values were obtained:
# A172 human glioma cells = experiment: MTT cytotoxicity assay, A172 glioma cells; details: A172; result in words
# From the text: (§1) In vitro efficacy of the present composition can be determined using methods well known in the art. For example, the cytoxicity of the present monoterpene (or sesquiterpene) and/or the therapeutic agents may be studied by MTT [3-(4,5-dimethylthiazol-2-yl)-2,5-diphenyl tetrazolium bromide] cytotoxicity assay. MTT assay is based on the principle of uptake of MTT, a tetrazolium salt, by metabolically active cells where it is metabolized into a blue colored formazon product, which can be read spectrometrically. J. of Immunological Methods 65: 55 63, 1983. The cytoxicity of the present monoterpene (or sesquiterpene) derivative and/or the therapeutic agents may be studied by colony formation assay. Functional assays for inhibition of VEGF secretion and IL-8 secretion may be performed via ELISA. Cell cycle block by the present monoterpene (or sesquiterpene) derivative and/or the therapeutic agents may be studied by standard propidium iodide (PI) staining and flow cytometry. Invasion inhibition may be studied by Boyden chambers. In this assay a layer of reconstituted basement membrane, Matrigel, is coated onto chemotaxis filters and acts as a barrier to the migration of cells in the Boyden chambers. Only cells with invasive capacity can cross the Matrigel barrier. Other assays include, but are not limited to cell viability assays, apoptosis assays, and morphological assays.
# (§2) First cytotoxicity assays were carried out after cells were treated with dimethyl-celecoxib (DMC) alone.
# (§3) Then U87, A172 and U251 cells were treated with dimethyl celecoxib bisPOH carbamate (POH−DMC) (e.g., synthesized by the method in Example 1), and the MTT cytotoxicity assays performed (FIG. 2).
# (§4) First cytotoxicity assays were carried out after cells were treated with temozolomide (TMZ) alone, the standard alkylating agent used in the treatment of malignant gliomas.
# (§5) Then TMZ-resistant glioma cell lines U87, A172 and U251 cells were treated with TMZ-POH (e.g., synthesized by the method in Example 3).
# (§6) To compare the cytotoxicity of Rolipram POH Carbamate (POH-Rolipram) (e.g., synthesized by the method in Example 5) with rolipram, […] inducing differentiation and apoptosis in glioma cells, A172, U87, U251 and LN229 human glioma cells were treated with either POH-Rolipram or rolipram for 48 hours.
# U251 human glioma cells = experiment: MTT cytotoxicity assay, U251 glioma cells; details: U251; result in words
# From the text: as §1, §2, §3, §4, §5, §6
# MTT cytotoxicity assays were carried out after cells were treated with the TMZ-POH conjugate. The MTT cytotoxicity assays were carried out as described in Chen T C, et al. Green tea epigallocatechin gallate enhances therapeutic efficacy of temozolomide in orthotopic mouse glioblastoma models. Cancer Lett. 2011 Mar. 28; 302(2):100-8.
# [1] = test system: TMZ sensitive (U251) cells; experiment: Colony forming assay, TMZ sensitive U251 cells; format: cell-based, human; details: in words
# Method: (§7) Colony forming assays were carried out after cells were treated with TMZ alone, POH alone, and the TMZ-POH conjugate. […] Cancer Lett. 2011 Mar. 28; 302(2):100-8.
# [2] = test system: TMZ resistant (U251TR) U251 cells; experiment: Colony forming assay, TMZ resistant U251TR cells; format: cell-based, human; details: in words
# Method: as §7
# MGMT = experiment: Western blot of MGMT protein levels in MDA-MB-468 cells; format: cell-based, human; details: in words
# Method: In FIG. 21C, MDA-MB-468 cells were treated with the indicated concentrations of TMZ-POH, TMZ, or O6-BG for 17 hours before harvest of cellular lysates. vh.=cells treated with vehicle only.
# Total cell lysates were analyzed by Western blot analysis as described in P. Pyrko et al. Downregulation of survivin expression and concomitant induction of apoptosis by celecoxib and its non-cyclooxygenase-2-inhibitory analog, dimethyl-celecoxib (DMC), in tumor cells in vitro and in vivo. Mol Cancer 5 (2006) 19. The primary antibodies were purchased from Cell Signaling Technology (Beverly, Mass.) or Santa Cruz Biotechnology, Inc. (Santa Cruz, Calif.) and used according to the manufacturers' recommendations. All immunoblots were repeated at least once to confirm the results.
# The major cytotoxic DNA lesion set by TMZ is methylation of O6-guanine, and it is well known that removal of this methyl group by MGMT leads to rapid degradation of the DNA repair protein.
# [3] = test system: D3H2LN cells implanted into the brains; experiment: Intracranial breast cancer tumor model in nude mice; format: in vivo; details: for median survival: TMZ-POH s.c., TMZ via gavage
# From the text: In FIG. 27A, all surviving animals were imaged again on days 21, 28, and 36. […] Arrow labeled Rx indicates the time period of treatment.
# All animal protocols were approved by the Institutional Animal Care and Use Committee (IACUC) of University of Southern California, and all rules and regulations were followed during experimentation on animals. Athymic mice (Harlan, Inc., Indianapolis, Ind.) were implanted intracranially with 2×10^5 cells. A subline of MDA-MB-231 cells called D3H2LN was used, which was transfected with the firefly luciferase gene and had been selected for aggressive growth and metastasis in vivo. Ten days after intracranial implantation, efficient tumor take was confirmed in all animals via non-invasive whole-body bioluminescent imaging. For this purpose, mice were intravenously injected with 50 mg/kg D-Luciferin (Perkin Elmer, Waltham, Mass.) and imaged using the Xenogen IVIS-200 Imaging System (Caliper/Perkin Elmer). Images were analyzed by region-of-interest (ROI) analysis using the Living Image software package (Caliper/Perkin Elmer) to quantitate light output (radiance, i.e., photons per second per square centimeter per steradian).
# Group 1 was the control group that received vehicle only (45% glycerol, 45% ethanol, 10% DMSO) via subcutaneous injection. Group 2 was the experimental group that received 25 mg/kg TMZ-POH via subcutaneous (s.c.) injection. Group 3 was the comparison group and animals received 25 mg/kg TMZ via gavage. Treatment was once per day for a period of 10 days (i.e., 10 treatments total). Thereafter, all surviving animals were imaged again, once per week.
# We used D3H2LN cells, which are a bioluminescent variant of the MDA-MB-231 cell line with aggressive tumor growth in mice. These cells were implanted into the brains of nude mice, and 10 days later all animals were imaged for luciferase expression in order to confirm efficient tumor take.
# Animals were distributed into three groups and treated once daily for 10 days with vehicle alone (control), 25 mg/kg TMZ-POH, or 25 mg/kg TMZ.
# [4] = 25 mg/kg once daily for 10 days
smiles,measurement,setting,value
"Cn1nnc2c(C(N)=O)ncn2c1=O [TMZ, temozolomide, reference compound]",cytotoxicity (MTT assay),A172 human glioma cells,minimal cytotoxicity
same,cytotoxicity (MTT assay),U251 human glioma cells,minimal cytotoxicity
same,cytotoxicity (colony forming assay),[1],demonstrated cytotoxicity
same,cytotoxicity (colony forming assay),[2],minimal cytotoxicity
same,MGMT protein levels,"MGMT; MDA-MB-468, 50 μM, 17 hours",no effect
same,additional survival after the termination of treatment,[3]; [4],8 days
same,median survival,[3]; [4],28 days
C=C(C)[C@@H]1CC=C(COC(=O)NC(=O)c2ncn3c(=O)n(C)nnc23)CC1 [TMZ-POH],cytotoxicity (MTT assay),A172 human glioma cells,substantially higher kill rates
same,cytotoxicity (MTT assay),U251 human glioma cells,substantially higher kill rates; also recorded: demonstrated cytotoxicity
same,cytotoxicity (colony forming assay),[1],demonstrated cytotoxicity; also recorded: substantially greater potency compared to POH alone
same,cytotoxicity (colony forming assay),[2],demonstrated cytotoxicity; also recorded: substantially greater potency compared to POH alone
same,MGMT protein levels,"MGMT; MDA-MB-468, 50 μM, 17 hours",significant decrease
same,MGMT protein levels,"MGMT; MDA-MB-468, 17 hours",affects MGMT levels more potently than TMZ
same,additional survival after the termination of treatment,[3]; [4],30 days
same,median survival,[3]; [4],50 days
same,status of animals by day 36,"[3]; 25 mg/kg once daily for 10 days, in words",still alive with no obvious signs of distress
same,bioluminescent imaging after 10-day treatment period,"[3]; 25 mg/kg once daily, in words",only small changes in radiance
same,increase of ROI radiance,"[3]; between days 10 and 21, representative mouse, 25 mg/kg once daily 10 days",1.7 fold
same,ROI radiance,"[3]; day 10, representative mouse",1.11E7 photons per second per square
same,ROI radiance,"[3]; day 21, representative mouse",1.92E7 photons per second per square
same,ROI radiance,"[3]; day 43, representative mouse",1.88E8 photons per second per square
